In patent US12109176B1, “Effect of glycerol on biofilm forming bacteria and fungi that changes the microbes sensitivity to pro and anti-biofilm non-toxic, non-bonded plasma amino acids and amino acid derivatives” (priority 2023, dated 2024):

Legend:
[1] = Thermal degradation in hot aqueous solution; assay type: physicochemical; settings: water at about 90 C. to 100 C.
Description: In order to promote the dissolution of the various amino acids in water, the water is usually maintained at a temperature of about 90 C. to 100 C.

[2] = test system: bacterial (S. aureus) biofilm and fungal biofilm (C. albicans); experiment: Biofilm inhibition assay, bacterial and fungal taken together; assay type: cell-based; settings: for Neutral (square: Inhibition Biofilm Assay): symbol marks the assay
[3] = in vivo
[4] = test system: bacterial and fungal biofilm; experiment: In vitro testing on bacterial and fungal biofilm (assay not told apart); assay type: cell-based; settings: for effect on bacterial and fungal biofilm (in words): in vitro testing
Description: (§1) Two types of biofilm assays were performed: an inhibition assay and a disruption assay. The inhibition assay assesses the compound's ability to prevent biofilm development, while the disruption assay assesses the compound's ability to break up an existing mature biofilm.
(§2) All bacterial biofilm solutions were prepared in Tryptic Soy Broth (TSB), supplemented with 1% glucose (henceforth referred to as TSB-G). All subsequent procedures were performed in a manner that maintained sterility. A solution of each amino acid or an amino acid derivative to be tested was prepared in weight to volume concentrations ranging from 0.1-5.0%. Amino acids and amino acid derivatives were also tested in combinations. Compound solutions were homogenized with gentle agitation in the dark (4° C., 24 hours) before use.
(§3) 32 Amino acids and 2 amino acid derivatives of the amino acid serine that occur freely in human blood were tested. […] 31 of the 32 amino acids that were tested were the L-Isomers. Glycine has no stereoisomers. The 2 amino acid derivatives, ethanolamine and phosphoethanolamine were also tested. All biofilm assays were performed using 384-well non-tissue culture-treated polystyrene plates. The fungal species tested are as follows: Candida albicans, Candida guilliermondii, Candida parapsilosis, Candida glabrata, Candida tropicalis and Candida dubliniensis. The bacterial species tested are as follows: Staphylococci (standard wild type and methicillin-resistant strain USA300), Escherichia coli, Pseudomonas aeruginosa and Staphylococcus epidermidis.
(§4) Fungal strains were streaked on Yeast Peptone Dextrose (YPD) agar plates and incubated at 30° C. for 48 hours. A single colony from each strain to be tested was inoculated into YPD broth and grown for 12 hours at 30° C., shaking at 225 rpm. […] The cells were allowed to adhere to the plate for 90 minutes at 37° C. with shaking (350 rpm). […] The plate was further incubated for 24 hours at 37° C. with shaking (350 rpm). Media was carefully aspirated and the biofilm was measured by optical density at 600 nm. […] The cells were allowed to adhere to the plate for 90 minutes at 37° C. with shaking (350 rpm). […] The plate was further incubated for 24 hours at 37° C. with shaking (350 rpm). […] The plate was further incubated for 24 hours at 37° C. with shaking (350 rpm). Media was carefully aspirated, and the biofilm was measured by optical density at 600 nm.
(§5) Bacterial strains were streaked on Blood Agar plates (5% sheep blood in Tryptic Soy Broth) and incubated at 37° C. for 24 hours. A single colony from each strain to be tested was inoculated in a TSB broth and grown for 12 hours, at 37° C. with shaking (225 rpm). For the bacterial biofilm inhibition assays, 1 μL of saturated overnight cell culture was added to either 80 μL of TSB-G, or TSB-G supplemented with the amino acid compound solution to be tested, in a 384-well plate. The cells were allowed to adhere to the plate for 60 minutes at 37° C. without shaking. The media was carefully aspirated and 80 μL of TSB-G, or TSB-G supplemented with the amino acid compound solution was added to the plate. The plate was further incubated for 24 hours at 37° C. without shaking. Media was carefully aspirated and the biofilm was measured by optical density at 600 nm. Eight or twelve replicates were performed for each tested condition and the reported values are normalized to the control (TSB-G media only). For the bacterial biofilm disruption assays, 80 µL of TSB-G was added to the plate, along with 1 μL of overnight cell culture. The cells were allowed to adhere to the plate for 60 minutes at 37° C. with no shaking. The media was carefully aspirated and 80 μL of TSB-G was added to the plate. The plate was further incubated for 24 hours at 37° C. with no shaking. Media was carefully aspirated from the mature biofilm and 80 μL of TSB-G, or TSB-G supplemented with the amino acid to be tested, was gently added to the plate.

[5] = test system: fungal biofilm (C. albicans); experiment: Fungal biofilm disruption assay; assay type: cell-based, Candida albicans
[6] = test system: bacterial (S. aureus) biofilm and fungal biofilm (C. albicans); experiment: Biofilm disruption assay, bacterial and fungal taken together; assay type: cell-based
Description: as §1, §2, §3, §4, §5

[7] = test system: fungal biofilm (C. albicans); experiment: Fungal biofilm inhibition assay; assay type: cell-based, Candida albicans
Description: as §1, §2, §3, §4

[8] = test system: bacterial (S. aureus) biofilm; experiment: Bacterial biofilm inhibition assay; assay type: cell-based, Staphylococcus aureus
bacterial biofilm = experiment: In vitro testing on bacterial biofilm (inhibition and/or disruption); assay type: cell-based; settings: in vitro testing
[9] = test system: bacterial (S. aureus) biofilm; experiment: Bacterial biofilm disruption assay; assay type: cell-based, Staphylococcus aureus
fungal biofilm = experiment: In vitro testing on fungal biofilm (inhibition and/or disruption); assay type: cell-based; settings: in vitro testing
[10] = Table F, in the presence of a sufficient concentration of glycerol
[11] = Table D, bacterial and fungal biofilm

For `NC(=O)CC[C@H](N)C(=O)O` [Glutamine, L-glutamine], the “thermal stability in aqueous solution” value [1] was “too susceptible to thermal degradation”, the “Neutral (square: Inhibition Biofilm Assay)” value ([2]; Table D, Neutral = no effect on the biofilm) was “▪ (Single square [ie. ▪] signifies little effect on the Inhibition Biofilm Assay (from about 10 to less than 30%))” and the “Neutral (square: Inhibition Biofilm Assay)” value ([2]; Table E, in the absence of an infusion of glycerol) was “▪ (Single square [ie. ▪] signifies little effect on the Inhibition Biofilm Assay (from about 10 to less than 30%))”. The “Neutral (square: Inhibition Biofilm Assay)” value [2, 10] was “▪ (Single square [ie. ▪] signifies little effect on the Inhibition Biofilm Assay (from about 10 to less than 30%))”.
For `OCC(O)CO` [glycerol], the “toxicity of the glycerol infusion” value [3] was “non-toxic to humans” and the “effect on bacterial and fungal biofilm (in words)” value [4] was “not found to have antibiofilm effect”.
With `N[C@@H](CCC(=O)O)C(=O)O` [Glutamic Acid, L-glutamic acid] the “Reduce Both (squares: Inhibition Biofilm Assay)” value [2, 11] was “▪▪ (Two squares [ie. ▪▪] signifies a major effect (greater than about 50%), on the Inhibition Biofilm Assay)”, the “Reduce Both (squares: Inhibition Biofilm Assay)” value [2, 10] was “▪▪ (Two squares [ie. ▪▪] signifies a major effect (greater than about 50%), on the Inhibition Biofilm Assay)” and the “Reduce or Inhibit F Biofilm (dots: Disruption Biofilm Assay)” value ([5]; Table D, 0.1 to 5.0%) was “●● (Two dots [ie. ●●] signifies a major effect (greater than about 50%), on the Disruption Biofilm Assay)”. The “Reduce or Inhibit F Biofilm (dots: Disruption Biofilm Assay)” value [5, 10] was “●● (Two dots [ie. ●●] signifies a major effect (greater than about 50%), on the Disruption Biofilm Assay)”, the “Reduce Both (dots: Disruption Biofilm Assay)” value [6, 11] was “●● (Two dots [ie. ●●] signifies a major effect (greater than about 50%), on the Disruption Biofilm Assay)” and the “Reduce Both (dots: Disruption Biofilm Assay)” value [6, 10] was “●● (Two dots [ie. ●●] signifies a major effect (greater than about 50%), on the Disruption Biofilm Assay)”. For the same molecule, the “Reduce or Inhibit F Biofilm (squares: Inhibition Biofilm Assay)” value ([7]; Table D, 0.1 to 5.0%) was “▪▪ (Two squares [ie. ▪▪] signifies a major effect (greater than about 50%), on the Inhibition Biofilm Assay)”, the “Reduce or Inhibit F Biofilm (squares: Inhibition Biofilm Assay)” value [7, 10] was “▪▪ (Two squares [ie. ▪▪] signifies a major effect (greater than about 50%), on the Inhibition Biofilm Assay)” and the “ideal concentration for antibiofilm effect” value ([4]; in the absence of glycerol on in vitro testing) was 0.5 g %. The “effect on bacterial and fungal biofilm (in words)” value [4] was “very active against both bacterial and fungal biofilm”, the “effect on bacterial and fungal biofilm (in words)” value ([4]; listed as Glutamic acid) was “strong effect on biofilm-forming bacteria and fungi in reducing biofilm formation” and the “concentration of maximum (ideal) antibiofilm effect” value ([4]; tested on its own, without glycerol) was 0.5%. The “Reduce or Inhibit B Biofilm (squares: Inhibition Biofilm Assay)” value ([8]; Table D, 0.1 to 5.0%) was “▪▪ (Two squares [ie. ▪▪] signifies a major effect (greater than about 50%), on the Inhibition Biofilm Assay)”, the “Reduce or Inhibit B Biofilm (squares: Inhibition Biofilm Assay)” value [8, 10] was “▪▪ (Two squares [ie. ▪▪] signifies a major effect (greater than about 50%), on the Inhibition Biofilm Assay)” and the “effect on bacterial biofilm (in words)” value (bacterial biofilm) was “antibacterial biofilm effect”. For the same molecule, the “Reduce or Inhibit B Biofilm (dots: Disruption Biofilm Assay)” value ([9]; Table D, 0.1 to 5.0%) was “●● (Two dots [ie. ●●] signifies a major effect (greater than about 50%), on the Disruption Biofilm Assay)”, the “Reduce or Inhibit B Biofilm (dots: Disruption Biofilm Assay)” value [9, 10] was “●● (Two dots [ie. ●●] signifies a major effect (greater than about 50%), on the Disruption Biofilm Assay)” and the “effect on fungal biofilm (in words)” value (fungal biofilm) was “antifungal biofilm effects”.
